Data: PubChem BioAssay AID449767 (Vanderbilt High Throughput Screening Facility, 2010)
The source made the active and inactive calls. No rule for the calls is given here.

Target: Muscarinic acetylcholine receptor M4 (Rattus norvegicus) (UniProt P08485)
Assay: M4 PAM leftward shift of ACh curve – rM4 cells, calcium, ACh concentration-response fold shift (AID 449767)
Settings: acetylcholine CRC fold-shift, at 30 µM, hits give high values

Sequence of Muscarinic acetylcholine receptor M4 (Rattus norvegicus) (P08485 whole entry, looked up): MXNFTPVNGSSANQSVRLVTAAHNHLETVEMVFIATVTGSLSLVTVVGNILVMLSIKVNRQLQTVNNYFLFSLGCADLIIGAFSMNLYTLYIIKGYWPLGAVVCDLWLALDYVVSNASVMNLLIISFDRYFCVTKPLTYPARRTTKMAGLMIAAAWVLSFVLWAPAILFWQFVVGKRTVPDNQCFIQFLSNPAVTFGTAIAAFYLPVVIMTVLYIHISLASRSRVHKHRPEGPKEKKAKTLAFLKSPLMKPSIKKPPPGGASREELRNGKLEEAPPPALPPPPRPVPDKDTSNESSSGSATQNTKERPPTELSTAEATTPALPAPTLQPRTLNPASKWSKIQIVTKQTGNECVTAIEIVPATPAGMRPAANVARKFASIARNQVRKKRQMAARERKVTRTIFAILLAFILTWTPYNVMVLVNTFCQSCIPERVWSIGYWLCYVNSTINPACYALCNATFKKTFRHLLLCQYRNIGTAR

Row | fold shift | SMILES
1 | < 1 (inactive) | COc1ccc(CNC(=O)c2sc3nc(OCCCN(C)C)cc(C)c3c2N)cc1
2 | 9 | COc1ccc(CNC(=O)c2sc3nc(OCc4cccnc4)cc(C)c3c2N)cc1
3 | 16 | Cc1cc(C)c2c(N)c(C(=O)NCc3ccccc3F)sc2n1
4 | 41 | Cc1cc(OCc2ccccn2)nc2sc(C(=O)NCc3cc(F)ccc3F)c(N)c12
5 | 50 | COc1ccc(CNC(=O)c2sc3nc(OCc4ccncc4)cc(C)c3c2N)cc1
6 | 36 | Cc1cc(OCc2ccncc2)nc2sc(C(=O)NCc3cccc(F)c3F)c(N)c12
7 | 40 | Cc1cc(C)c2c(N)c(C(=O)NCc3ccc4c(c3)OCO4)sc2n1
8 | 64 | Cc1cc(OCc2ccncc2)nc2sc(C(=O)NCc3cc(F)ccc3F)c(N)c12
9 | 7 | Cc1cc(OCCCN(C)C)nc2sc(C(=O)NC3COC3)c(N)c12
10 | 36 | Cc1cc(OCCN2CCOCC2)nc2sc(C(=O)NC(C)C)c(N)c12
11 | 51 | Cc1cc(OCCN2CCOCC2)nc2sc(C(=O)Nc3ccccc3)c(N)c12
12 | 37 | COc1ccc(CNC(=O)c2sc3nc(OCCN4CCOCC4)cc(C)c3c2N)cc1
13 | 4 | COc1ccc(CNC(=O)c2sc3nc(OCc4ccccn4)cc(C)c3c2N)cc1
14 | 40 | Cc1cc(OCCN2CCOCC2)nc2sc(C(=O)NC3COC3)c(N)c12
15 | 67 | COCCCNC(=O)c1sc2nc(OCCN3CCOCC3)cc(C)c2c1N
16 | 28 | Cc1cc(OCc2ccccn2)nc2sc(C(=O)NCc3cccc(F)c3F)c(N)c12
17 | 25 | COc1ccc(CNC(=O)c2sc3nc(OCCN4CCCC4)cc(C)c3c2N)cc1
18 | 14 | Cc1cc(OCCCN(C)C)nc2sc(C(=O)NCc3cc(F)ccc3F)c(N)c12
19 | 62 | Cc1cc(OCCN2CCOCC2)nc2sc(C(=O)NC(C)(C)C)c(N)c12
20 | 18 | Cc1cc(C)c2c(N)c(C(=O)NCc3cccc(F)c3F)sc2n1
21 | 42 | COc1ccc(CNC(=O)c2sc3nc(C)cc(C)c3c2N)cc1
22 | 48 | Cc1cc(C)c2c(N)c(C(=O)NCc3ccc(Cl)cc3)sc2n1
23 | 26 | Cc1cc(C)c2c(N)c(C(=O)NCc3ccccc3)sc2n1
